Measurements taken from patent publication US9114119B2, “Use of serine palmitoyl transferase inhibitors for preventing and delaying inherited retinal degenerations and compositions thereof” (Universita' degli Studi di Milano, priority 2009, dated 2015).

Tests used:
[1] = system: photoreceptors of rd10 mice; experiment: Rows of photoreceptor nuclei in the outer nuclear layer (ONL) after nanosphere eyedrops; assay type: in vivo; conditions: rd10 mice aged P24, MYR-SLN treated vs control mouse (FIG. 1a)
Description: Following ERG recordings, animals were enucleated, their eyes fixed and sectioned and retinal sections stained with fluorescent nuclear dyes to evaluate the thickness of the outer nuclear layer (ONL) and the overall retinal morphology.
A quantitative analysis of the average number of rows of nuclei in the ONL of MYR-SLN and U-SLN (Unloaded-Solid Lipid Nanospheres) treated mice is given in FIG. 1b.

[2] = system: endogenous ceramide in the retina of wt mice; experiment: Retinal endogenous ceramide levels (diacylglycerol kinase test) after single intravitreal injection, wt mice; assay type: in vivo, mouse; conditions: single intravitreal injection 500 nanoliters 188 mM at P19, retinas isolated at P21
Experimental: (§1) The levels of the sphingolipid endogenous ceramide were tested after isolation of the retina from anaesthetised rd10 mutant and wild-type (wt) mice of various age groups. The isolated retinas were treated for lipid extraction, and the total endogenous ceramide/inorganic phosphate ratio was determined with the diacylglycerol kinase test.
(§2) Single intravitreal injections of 500 nanoliters of myriocin (188 mM) were administered to the right eye of rd10 and wt mice aged P19. The vehicle alone (DMSO) was injected into the left eye of the same animals. The left and right retinas were isolated at P21, and treated separately for the biochemical ceramide test as explained above.

rd10 and wt mice = experiment: Toxicity studies of intraocular injections; assay type: in vivo, mouse
Description: It should be noted that myriocin has only rarely been used in vivo to date, and never injected intraocularly. The dose was chosen on the basis of the available literature on cultured cells, calculating a dilution of ⅞ times, due to the vitreous humour. A time window was selected for intraocular administration which preceded the peak death of the apoptotic photoreceptors, for the crucial reason of preventing the majority of photoreceptors from entering the apoptotic cycle.

[3] = system: endogenous ceramide in the retina of rd10 mutant mice; experiment: Retinal endogenous ceramide levels (diacylglycerol kinase test) after single intravitreal injection, rd10 mice; assay type: in vivo, mouse; conditions: single intravitreal injection 500 nanoliters 188 mM at P19, retinas isolated at P21
Experimental: as §1, §2

[4] = system: photoreceptors of rd10 mice; conditions: mouse, in vivo
Description: The functional recovery of the photoreceptors was studied by recording a flash electroretinogram (ERG), a technique widely used to test the retinal physiology of human patients, especially those suffering from RP.

[5] = system: retinal morphology of rd10, wt and Thy1-GFP mice; conditions: mouse, in vivo
[6] = system: pyknotic photoreceptors of rd10 mice; experiment: Pyknotic photoreceptor count after intravitreal injection; assay type: in vivo, mouse
Experimental: as §2
The animals injected at P19 were collected at P21, and their eyes were enucleated and fixed. The left and right retinas were isolated, stained with fluorescent DNA-binding molecules, and mounted on slides. The external nuclear layer which contains the photoreceptor cores was sampled under the confocal microscope at regular intervals along the four retinal meridians. The images were exported to a computerised workstation, and the pyknotic photoreceptors were counted in each scanned field. The total number of pyknotic photoreceptors was calculated for each pair of treated and control retinas.

CCCCCCC(=O)CCCCCC/C=C/C[C@@H](O)[C@H](O)[C@@](N)(CO)C(=O)O [myriocin]
number of preserved nuclear rows in the ONL [1]: significantly higher | retinal ceramide levels [2]: did not significantly reduce | adverse effects of intraocular injections (rd10 and wt mice; rd10 or wt mice): do not cause adverse effects | inflammatory response symptoms or increased ocular reactivity (rd10 and wt mice; treated animals, intraocular injection): no general or local inflammatory response symptoms | retinal ceramide levels vs control (DMSO) eyes [3]: Significantly lower ceramide levels | recovery of ERG response [4]: no recovery of ERG response/reaction | morphology of ganglion cells and retinal stratification [5]: excellent maintenance of the morphology of the ganglion cell and structure | retinal morphology [5]: normal retinal morphologies | reduction of photoreceptor death rate (pyknotic photoreceptor count) ([6]; rd10 mice injected at P19, collected at P21, vs DMSO eye, n=17): approx. 50% | number of pyknotic (dying) photoreceptors ([6]; rd10 mutant mice, intravitreal injection): marked reduction
